Consider one compound from patent US11572564B2, “Microorganisms for producing 1,4-butanediol and methods related thereto” (priority 2011, dated 2023).

SMILES strings stand for the structures.

For data set [1] the following is noted: 20° C. and 1 atm; cited from earlier work.
Data set [2] relates to E. coli. Description: E. coli CO tolerance experiment (anaerobic growth with saturating CO). The settings on record: levels achievable at normal atmospheric pressure. Type of data set: cell-based. The protocol: To test whether or not E. coli can grow anaerobically in the presence of saturating amounts of CO, cultures were set up in 120 ml serum bottles with 50 ml of Terrific Broth medium (plus reducing solution, NiCl2, Fe(II)NH4SO4, cyanocobalamin, IPTG, and chloramphenicol) as described above for anaerobic microbiology in small volumes. One half of these bottles were equilibrated with nitrogen gas for 30 min. and one half was equilibrated with CO gas for 30 min. An empty vector (pZA33) was used as a control, and cultures containing the pZA33 empty vector as well as both ACS90 and ACS91 were tested with both N2 and CO. All were inoculated and grown for 36 hrs with shaking (250 rpm) at 37° C. […] The bulk of the observed growth occurred overnight with a long lag.

In the case of `[C-]#[O+]` [CO], the maximum water solubility in data set [1] is 970 µM. Moreover, the “sensitivity of laboratory strains of E. coli to CO” value in data set [2] is “insensitive”.
